This note sets out measurements from PubChem BioAssay AID743072 (Broad Institute, 2013).

The structures appear in SMILES notation. Activity calls are given as the source filed them. The rule behind the calls is not given here.

The experiment has as its system M. tuberculosis BioA-TetON underexpression strain, growth inhibition. Put plainly: antitubercular activity, BioA-TetON-5 strain, plate reader, dry powder (AID 743072). Particulars: for IC90: measured here: 90% growth inhibition.

For orientation: IC50 means the point on the concentration scale where inhibition reaches its midpoint. In general, IC90 refers to the concentration needed for an effect of 90%. As for `Cc1cc(C)n2nc(C(=O)Nc3cccnc3)cc2n1`, the IC50 was 4.2 µM and the IC90 was greater than 50 µM.
The like results for `Cc1ccc(/C=C(\CCC(=O)O)c2nc3ccccc3s2)cc1` were, in that order, 1 µM and 2.8 µM.
The like results for `CC(=O)c1ccc(N2CCN(C(=O)c3ccc4c(c3)OCO4)CC2)cc1` were, in that order, 1.3 µM and 9.3 µM.
In the case of `CCN(CC)c1ccc2cc(C(=O)c3cccs3)c(=O)oc2c1`, the IC50 is 1.1 µM and the IC90 worked out at 5.6 µM.
The like results for `O=C(Nc1ccc2snnc2c1)N1CCCCC1` were, in that order, 22 µM and greater than 50 µM.
Take `O=C(COc1ccc2ccc(=O)oc2c1)N1CCN(c2ccc(F)cc2)CC1`: the IC50 was 10.2 µM and the IC90 turned out to be 42.7 µM.
Regarding `COc1ccc(N2CCN(C(=O)c3ccc4c(c3)OCO4)CC2)cc1`, the IC50 was 17.6 µM and the IC90 is greater than 50 µM.
The matching figures for `Cc1ccccc1/C=C(\CCC(=O)O)c1nc2ccccc2s1`: 4.7 µM and 25.3 µM.
For `CC(=O)c1ccc(N2CCN(C(=O)c3ccc(Br)cc3)CC2)c(F)c1`, the IC50 is 4.9 µM and the IC90 was greater than 50 µM.
For `CC(=O)c1ccc(N2CCN(C(=O)c3ccc(F)cc3)CC2)cc1`, the IC50 is 44.7 µM and the IC90 was greater than 50 µM.
The like results for `O=C(Nc1cccnc1)c1cnn2c(C(F)F)cc(C3CC3)nc12` were, in that order, 3.3 µM and greater than 50 µM.
Consider `O=C(Nc1ccc2snnc2c1)N1CCN(c2ccccc2)CC1`, for which the IC50 is 0.9 µM and the IC90 was determined as 8.3 µM.
Take `Cc1nc2ccc(NC(=O)N3CCN(c4ccccc4)CC3)cc2s1`: the IC50 was 1.3 µM and the IC90 came to 3.8 µM.
As for `O=C(c1ccc2c(c1)OCO2)N1CCN(c2ccc(Cl)cc2)CC1`, the IC50 is 11.3 µM and the IC90 was found to be 44.5 µM.
The matching figures for `O=C(Nc1ccncc1)c1cc2nc(C3CC3)cc(C(F)F)n2n1`: 50 µM and greater than 50 µM.
In the case of `O=C(Nc1ccc(F)cc1)N1CCN(c2ccccc2)CC1`, the IC50 was 5.1 µM and the IC90 was greater than 50 µM.
Consider `CC(=O)c1ccc(N2CCN(C(=O)c3ccc4c(c3)OCCO4)CC2)cc1`, for which the IC50 is > 50 µM (inactive) and the IC90 is greater than 50 µM.
As for `CC(C)(C)c1ccc(C(=O)N2CCN(c3ccc4c(c3)OCO4)CC2)cc1`, the IC50 is 10.7 µM and the IC90 came to 29.5 µM.
With `CCOC(=O)N1CCN(C(=O)Nc2ccc3snnc3c2)CC1`, the IC50 was 3.8 µM and the 90% effect concentration (IC90) turned out to be 29.6 µM.
As for `CCc1ccc(N2CCN(C(=O)c3ccc4c(c3)OCO4)CC2)cc1`, the 50% inhibitory concentration (IC50) is 6.3 µM and the IC90 is greater than 50 µM.
With `O=C(O)CC/C(=C\c1ccc([N+](=O)[O-])cc1)c1nc2ccccc2s1`, the IC50 was 1.3 µM and the IC90 was found to be 7.9 µM.
The matching figures for `Cc1nc2cc(NC(=O)N3CCN(c4ccccc4)CC3)ccc2o1`: 36 µM and greater than 50 µM.
On to `Cc1ccc(/C=C(\CCC(=O)O)c2nc3ccccc3s2)cc1[N+](=O)[O-]`, for which the IC50 is 0.3 µM and the IC90 stood at 0.7 µM.
Take `O=C(Nc1ccc2snnc2c1)N1CCOCC1`: the IC50 was > 50 µM (inactive) and the IC90 is greater than 50 µM.
Take `O=C(Nc1cccnc1)N1CCN(c2ccccc2)CC1`: the IC50 was > 50 µM (inactive) and the concentration for an effect of 90% (IC90) is greater than 50 µM.
As to `CC(=O)c1ccc(N2CCN(C(=O)c3cccc(Cl)c3)CC2)cc1`, the IC50 was 2.2 µM and the IC90 was 16.5 µM.
As for `COc1ccc(-c2cc(C(F)(F)F)n3nc(C(=O)Nc4cccnc4)cc3n2)cc1`, the IC50 was 0.3 µM and the IC90 was found to be 0.9 µM.
Take `O=C(c1ccc2c(c1)OCO2)N1CCN(c2ccc(F)cc2)CC1`: the IC50 was 10.6 µM and the IC90 was greater than 50 µM.
In the case of `CCc1ccc(C(=O)N2CCN(Cc3ccc4c(c3)OCO4)CC2)cc1`, the IC50 was 5.2 µM and the IC90 was greater than 50 µM.
The like results for `Cc1cc(C)n2nc(C(=O)Nc3cccnc3)nc2n1` were, in that order, 50 µM and greater than 50 µM.
The matching figures for `CC(=O)c1ccc(N2CCN(C(=O)c3ccc(Cl)cc3)CC2)cc1`: 27.9 µM and greater than 50 µM.
Consider `COC(=O)c1c(C(=O)OC)c(-c2cccc(F)c2)n2c1CS(=O)C2` (stereo not given), for which the IC50 was 1.7 µM and the IC90 is 34.9 µM.
In the case of `O=C(Nc1cccnc1)c1cnn2c(C(F)(F)F)cc(-c3ccccc3)nc12`, the IC50 is > 50 µM (inactive) and the IC90 was greater than 50 µM.
With `COc1ccc(NC(=O)N2CCN(c3ccccc3)CC2)cc1`, the IC50 is 48 µM and the IC90 was greater than 50 µM.
The like results for `O=C(Nc1ccc2[nH]ccc2c1)N1CCN(c2ccccc2)CC1` were, in that order, 11.7 µM and greater than 50 µM.
Take `COc1ccc(C(=O)N2CCN(c3ccc(C(C)=O)cc3)CC2)cc1`: the IC50 was 38.5 µM and the IC90 was greater than 50 µM.
`O=C(O)CC/C(=C\c1ccccc1[N+](=O)[O-])c1nc2ccccc2s1`: the IC50 is 50 µM and the IC90 is greater than 50 µM.
Regarding `COc1cc(/C=C/C(=O)Nc2cccnc2)cc(OC)c1OC`, the IC50 was 1.3 µM and the IC90 came out at 15.3 µM.
Turning to `CC(=O)c1ccc(N2CCN(C(=O)c3ccccc3)CC2)cc1`, the IC50 was > 50 µM (inactive) and the IC90 was greater than 50 µM.
The like results for `O=C(Nc1ccc(Cl)cc1)c1cc2nc(C3CC3)cc(C(F)(F)F)n2n1` were, in that order, 50 µM and greater than 50 µM.
As to `COc1cccc(C(=O)N2CCN(c3ccc(C(C)=O)cc3)CC2)c1`, the IC50 is 41.5 µM and the IC90 was greater than 50 µM.
Take `O=C(Nc1cccnc1)c1cc2nc(-c3cccs3)cc(C(F)(F)F)n2n1`: the IC50 is > 50 µM (inactive) and the IC90 is greater than 50 µM.
`O=C(Nc1cccc(F)c1)N1CCN(c2ccccc2)CC1`: the IC50 was 4.6 µM and the IC90 is 32.9 µM.
In the case of `O=C(Nc1ccc(Cl)c(-c2nc3ccccc3[nH]2)c1)c1cccnc1`, the half-inhibitory concentration (IC50) is 1.9 µM and the IC90 stood at 14.5 µM.
`O=C(c1ccc2c(c1)OCO2)N1CCN(c2ccccc2)CC1`: the IC50 was 20.9 µM and the IC90 was greater than 50 µM.
As to `O=C(c1ccc2c(c1)OCO2)N1CCN(Cc2ccccc2)CC1`, the IC50 was > 50 µM (inactive) and the IC90 was greater than 50 µM.
On to `COc1cccc(NC(=O)N2CCN(c3ccccc3)CC2)c1`, for which the IC50 is 36.4 µM and the IC90 was greater than 50 µM.
As for `CC(=O)c1ccc(N2CCN(C(=O)c3ccc(C)cc3)CC2)cc1`, the IC50 was 31.4 µM and the IC90 was greater than 50 µM.
Turning to `O=C(Nc1cccc(Cl)c1)N1CCN(c2ccccc2)CC1`, the 50% inhibitory concentration (IC50) is 4.9 µM and the IC90 was greater than 50 µM.
Turning to `CC(=O)c1ccc(N2CCN(C(=O)c3cccc(F)c3)CC2)cc1`, the IC50 is > 50 µM (inactive) and the IC90 was greater than 50 µM.
Consider `COc1cccc(NC(=O)CCC2CCN(C(=O)c3ccc(C(C)=O)s3)CC2)c1`, for which the IC50 was 4.4 µM and the IC90 is greater than 50 µM.
As for `O=C(Nc1ccccc1)N1CCN(c2ccccc2)CC1`, the IC50 is 3.2 µM and the IC90 turned out to be 48.2 µM.
`Cc1ccc(/C=C(\CCCC(=O)O)c2nc3ccccc3s2)cc1[N+](=O)[O-]`: the IC50 is 6.1 µM and the IC90 turned out to be 46.2 µM.
For the molecule `CC(=O)c1ccc(N2CCN(C(=O)c3ccc4ncsc4c3)CC2)cc1`, the concentration for half-maximal inhibition (IC50) was 12.9 µM and the IC90 was greater than 50 µM.
For `CC(=O)c1ccc(N2CCN(C(=O)c3cccnc3)CC2)cc1`, the IC50 is > 50 µM (inactive) and the IC90 is greater than 50 µM.
For the molecule `Cc1cccc(/C=C(\CCC(=O)O)c2nc3ccccc3s2)c1`, the IC50 was 1.8 µM and the IC90 turned out to be 9 µM.
Take `CC(=O)c1ccc(N2CCN(Cc3ccc4c(c3)OCO4)CC2)cc1`: the IC50 is 25.2 µM and the IC90 is greater than 50 µM.
As to `Cc1ccc(NC(=O)N2CCN(c3ccccc3)CC2)cc1`, the IC50 was 10.6 µM and the IC90 was greater than 50 µM.
For `Cc1ccc(/C=C(\CC(=O)O)c2nc3ccccc3s2)cc1[N+](=O)[O-]`, the half-maximal inhibitory concentration (IC50) was 2.9 µM and the IC90 came to 17.2 µM.
Regarding `Cc1ccc(-c2cc(C(F)(F)F)n3nc(C(=O)Nc4cccnc4)cc3n2)cc1`, the IC50 was > 50 µM (inactive) and the IC90 is greater than 50 µM.
